# Results reported in US12091424B2, “Rapamycin derivatives” (NOVARTIS AG, priority 2017, dated 2024).
# Columns and labels:
# [1] = system: mTORC1 signaling; assay: MEF TSC1−/− cell-based assay for rapalog potency (pS6); set-up: species or system Mouse; conditions: Mus musculus, MEF TSC1−/− cells; average from multiple assays
# Experimental: Cell-based assay for rapalog potency determination. Rapalog potency was determined using MEF TSC1−/− cell based assay. MEF TSC1−/− cells are Mouse Embryonic Fibroblasts deficient in Tuberous sclerosis protein—TSC1, which negatively regulates mTORC1 signaling and thus display constitutive mTORC1 activation, resulting in phosphorylation (activation) of downstream molecules. This cell-based assay is used to measure inhibition (de-phosphorylation) of S6 and 4EBP1 by rapalogs or other mTOR inhibitors.
# MEF TSC1−/− cells were plated on Poly-D-lysine coated 384 well Griener clear bottom plates and incubated overnight at 37° C., 5% CO2. […] Nuclei were visualized with Hoechst (ThermoFisher Scientific #H3570) staining. Cells were imaged (InCell 600) using respective fluorescence channels and the potency of mTOR inhibitors was defined by pS6 IC50 (nM).
# In vitro potency of mTOR inhibitors was defined by pS6 IC50 (nM) in MEF TSC1−/− cells.
# [2] = molecular target: FKBP51 (Homo sapiens (Human), UniProt Q13451); assay: SPR assay, binding affinity to FKBP51; conditions: single-cycle kinetics
# Sequence of FKBP51 (Q13451 whole entry, the tested form may be a part): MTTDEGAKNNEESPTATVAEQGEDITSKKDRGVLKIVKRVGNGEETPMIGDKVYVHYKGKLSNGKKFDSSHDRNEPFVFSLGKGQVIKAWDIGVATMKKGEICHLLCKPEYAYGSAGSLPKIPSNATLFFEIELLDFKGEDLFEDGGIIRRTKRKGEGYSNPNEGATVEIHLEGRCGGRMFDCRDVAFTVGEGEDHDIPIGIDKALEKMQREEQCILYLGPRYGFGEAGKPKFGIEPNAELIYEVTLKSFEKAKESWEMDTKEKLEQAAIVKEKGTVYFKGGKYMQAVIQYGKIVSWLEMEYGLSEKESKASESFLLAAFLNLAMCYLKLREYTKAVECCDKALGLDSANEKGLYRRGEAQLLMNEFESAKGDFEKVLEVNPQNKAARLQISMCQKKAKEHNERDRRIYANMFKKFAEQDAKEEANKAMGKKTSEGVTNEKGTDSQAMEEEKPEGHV
# Experimental: SPR Assay to Determine Binding Affinity to FK506-Binding Proteins (FKBP). N-terminal avi-his6 tagged FKBP fusions to FKBP12, FKBP51 and FKBP52 were expressed in E. coli and purified using standard chromatography. Each protein was subsequently immobilized on a streptavidin chip in a Biacore 8K SPR instrument (GE Healthcare). Using single-cycle kinetics, compound titrations were flowed at 45 uL/min over each surface using 2-minute association and 30-minute dissociation phases in a buffer containing 50 mM Tris pH 7.5/150 mM NaCl/0.01% Tween 20/1 mM DTT/2% DMSO. The data was fit using low molecular weight (LMW) single-cycle kinetics. The equilibrium dissociation constants (KD) are reported.
# [3] = Comparative blood and brain concentrations in rats after oral dosing; type: in vivo; conditions: rat; p.o. 3, 10 and 30 mg/kg; 3 h and 24 h
# Experimental: Concentrations were determined using HPLC/Mass spectrometry. […] Blood and brain tissues were collected at 3 hours (h) and 24 h following treatment to determine concentrations of the compounds.
# [4] = system: mTORC1 pathway; assay: Inhibition of mTORC1 pathway in rat liver (p-S6/t-S6 immunoblot); type: in vivo
# Experimental: Protein extraction and immunoblotting. For protein extraction, snap frozen tissues were lysed in MSD Lysis Buffer (MSD, Rockville, Maryland), supplemented with complete EDTA free protease inhibitor and PhosSTOP phosphatase inhibitor tablets (Roche, Manheim, Germany), and centrifuged at 13,000 g for 20 min at 4° C. The resultant supernatant was used for immunoblotting. Protein was quantified with BCA protein assay (Thermo Scientific, MA). Samples were resolved on 4-20% Criterion™ TGX™ Precast Midi Protein gels (Bio-Rad, CA) and transferred onto nitrocellulose membranes (Bio-Rad, CA) using a Trans Turbo Blot system (Bio-Rad, CA). Immunoblotting was performed with antibodies to p-S6 and t-S6 from Cell Signaling Technologies (all 1:1000 in TBS-T with 5% BSA). The ‘p’ and ‘t’ prefixes signify ‘phosphorylated’ and ‘total’ forms respectively. HRP-conjugated secondary antibodies against rabbit (#7074) were from Cell Signaling Technologies, MA. […] Resultant digital images were converted into a TIFF format and quantified using ImageJ software.
# The ability of Example 2 to inhibit mTORC1 pathway in vivo was determined in rats aged 4 months (FIG. 5A-5D).
# [5] = system: S6K1 (Thr389) in FKBP12 knock-down 293T cells; assay: S6K1 (Thr389) phosphorylation ELISA in FKBP12 knock-down 293T cells; type: cell-based; conditions: 2 hours treatment
# Experimental: Generating FKPB12 knock-down cells. […] Selection was performed with puromycin for 48 hours and cells were plated for colony formation. FKBP12 knock-down clones were screened by immunoblotting with an anti-FKBP12 antibody (Thermo Scientific, Pierce #PA1-026A).
# WT, FKBP12 knock-down and FKBP12 knock-out 293T cells were plated at a density of 30,000 cells per well in poly-D-Lysine coated 96-well plates (Corning, #354461) in Dulbecco's modified Eagle's medium (ThermoFisher, #11995-065) supplemented with 10% fetal bovine serum (ThermoFisher, #16140-071). Cells were incubated at 37° C., 5% CO2 for 48 hours until they reached 80% confluence. […] Media supplemented with blank Dimethyl sulfoxide (DMSO) was used as a control for both compounds. Phosphorylated amounts of S6K1 (Thr389) were detected by a sandwich ELISA kit (Cell signaling, #7063C) following the manufacture's protocol.
# [6] = in vivo; conditions: male, Sprague Dawley, rat, whole blood
smiles,measurement,setting,value
"CO[C@@H]1C[C@H](C[C@@H](C)[C@@H]2CC[C@H](C)/C=C(\C)[C@@H](O)[C@@H](OC)C(=O)[C@H](C)C[C@H](C)/C=C/C=C/C=C(\C)[C@H](N3CCCS3(=O)=O)C[C@@H]3CC[C@@H](C)[C@@](O)(O3)C(=O)C(=O)N3CCCC[C@H]3C(=O)O2)CC[C@H]1O [Example 2, (R)—C16-(1,1-dioxidoisothiazolidin-2-yl)-C32-deoxo-rapamycin]",IC50,[1],0.274 nM
same,Kd,[2],> 10000 nM
same,blood concentrations compared with RAD001,[3],higher
same,brain concentrations compared with RAD001,[3],higher
same,S6 inactivation in rat livers,[4]; 24 h following dosing with 10 (trend p=0.06) and 30 mg/kg,remained inactivated
same,de-phosphorylation (inactivation) of S6 in rat livers,"[4]; single dose 3, 10 and 30 mg/kg, three hours following dosing, vs vehicle",significant de-phosphorylation
same,maximum inhibition of S6K1(Thr389),[5],40%
same,clearance,"[6]; iv, 1 mg/kg",9 mL/min/kg
same,half-life,"[6]; iv, 1 mg/kg",9.9 h
same,bioavailability,"[6]; oral, 3 mg/kg",18%
